Laboratory results taken from patent publication US20260007681A1, “INDOLE DERIVATIVES AS ESTROGEN RECEPTOR DEGRADERS” (REGENTS OF THE UNIVERSITY OF MICHIGAN, priority 2022, published 2026).
Read-outs that look alike come from different tables or passages of the source.

How the values were obtained:
ER in MCF-7 cells = ER in MCF-7 cells (Homo sapiens (Human), UniProt P03372); experiment: In-cell western (ICW) ER degradation assay in MCF-7 cells (Compounds A1-A70); assay type: cell-based; conditions: MCF-7 cells, 16 hrs treatment; for DC50: ER degradation, 0.02 to 300 nM, read-out: MCF7 ICW DC50; for Dmax: MCF7, maximal ER degradation, read-out: MCF7 ICW Dmax (%)
ER in MCF-7 cells, sequence (P03372 whole entry): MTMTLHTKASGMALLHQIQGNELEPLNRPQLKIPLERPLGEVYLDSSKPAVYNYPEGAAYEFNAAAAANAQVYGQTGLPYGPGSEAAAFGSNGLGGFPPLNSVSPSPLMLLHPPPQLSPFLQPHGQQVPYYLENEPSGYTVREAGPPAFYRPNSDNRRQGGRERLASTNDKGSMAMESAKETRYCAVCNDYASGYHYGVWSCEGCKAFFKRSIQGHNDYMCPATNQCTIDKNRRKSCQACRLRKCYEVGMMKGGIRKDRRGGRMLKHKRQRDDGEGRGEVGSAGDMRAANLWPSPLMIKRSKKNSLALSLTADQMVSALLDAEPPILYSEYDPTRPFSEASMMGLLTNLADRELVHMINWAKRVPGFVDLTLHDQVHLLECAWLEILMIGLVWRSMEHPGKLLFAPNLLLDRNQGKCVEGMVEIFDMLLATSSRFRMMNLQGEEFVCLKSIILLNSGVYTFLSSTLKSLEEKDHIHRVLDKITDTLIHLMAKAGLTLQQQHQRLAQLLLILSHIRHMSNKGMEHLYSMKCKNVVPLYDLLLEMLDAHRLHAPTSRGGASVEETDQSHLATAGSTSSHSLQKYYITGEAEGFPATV
Procedure: (§1) ERa degradative activity of compounds can be assessed in MCF-7 and T47D Cells. MCF-7 and T47D cell are seeded and are subsequently treated with the compounds at certain concentrations (e.g., 0.02 to 300 nM). DMSO can be used as vehicle control. Cells are fixed and are blocked with Intercept (PBS) Blocking Buffer (e.g., Li—COR, Odyssey Blocking Buffer), and are stained with ER (e.g., 1:500, Cell signaling) primary antibody for overnight at cold room. Secondary Antibody (e.g., IRDye 800CW Goat anti-Rabbit IgG) and CellTag 700 Stain are added in Intercept (PBS) Blocking Buffer. Finally, cell plate is placed in incubator to dry. Image and signal are captured on Odyssey® DLx Imaging System.
(§2) Day 3: After 16 hrs of compounds treatment, cells were fixed by 4% PFA and permeabilized with elution buffer (0.1% Triton X-100 in 1% PBS Solution). Subsequently, cells were blocked with Intercept (PBS) Blocking Buffer (Li—COR, Odyssey Blocking Buffer), and were stained with ER (1:500, Cell signaling) primary antibody for overnight at cold room.
(§3) Day 4: Remove the buffer, add IRDye 800CW Goat anti-Rabbit IgG Secondary Antibody (1:2000) and CellTag 700 Stain (1:500) in Intercept (PBS) Blocking Buffer. Finally, cell plate is placed in incubator to dry. Image and signal were captured on Odyssey® DLx Imaging System.

ER in T47D cells = ER in T47D cells (Homo sapiens (Human), UniProt P03372); experiment: In-cell western (ICW) ER degradation assay in T47D cells (Compounds A1-A70); assay type: cell-based; conditions: T47D cells, 16 hrs treatment; for DC50: ER degradation, 0.02 to 300 nM; for Dmax: maximal ER degradation, read-out: T47D ICW Dmax (%)
ER in T47D cells, sequence (P03372 whole entry): as above
Procedure: as §1, §2, §3

CRBN/DDB1 = CRBN/DDB1 (Homo sapiens (Human), UniProt Q96SW2); assay type: binding; conditions: His tagged CRBN+DDB-DLS7+CXU4, Cy5-labeled Thalidomide probe, one hour incubation; read-out: CRBN HTRF IC50
CRBN/DDB1, sequence (Q96SW2 whole entry): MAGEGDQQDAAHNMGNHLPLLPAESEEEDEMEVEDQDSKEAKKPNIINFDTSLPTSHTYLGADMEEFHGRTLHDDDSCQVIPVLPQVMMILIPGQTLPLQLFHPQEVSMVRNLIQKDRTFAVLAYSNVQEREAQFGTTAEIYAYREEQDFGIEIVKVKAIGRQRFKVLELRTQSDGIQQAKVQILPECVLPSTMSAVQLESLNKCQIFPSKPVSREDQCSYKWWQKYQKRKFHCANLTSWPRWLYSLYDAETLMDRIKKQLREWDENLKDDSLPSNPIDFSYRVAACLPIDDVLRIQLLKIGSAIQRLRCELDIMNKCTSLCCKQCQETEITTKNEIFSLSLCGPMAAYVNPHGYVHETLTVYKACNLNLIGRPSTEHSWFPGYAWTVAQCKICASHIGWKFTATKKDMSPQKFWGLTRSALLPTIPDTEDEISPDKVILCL
CRBN/DDB1, sequence (Q16531 whole entry partner): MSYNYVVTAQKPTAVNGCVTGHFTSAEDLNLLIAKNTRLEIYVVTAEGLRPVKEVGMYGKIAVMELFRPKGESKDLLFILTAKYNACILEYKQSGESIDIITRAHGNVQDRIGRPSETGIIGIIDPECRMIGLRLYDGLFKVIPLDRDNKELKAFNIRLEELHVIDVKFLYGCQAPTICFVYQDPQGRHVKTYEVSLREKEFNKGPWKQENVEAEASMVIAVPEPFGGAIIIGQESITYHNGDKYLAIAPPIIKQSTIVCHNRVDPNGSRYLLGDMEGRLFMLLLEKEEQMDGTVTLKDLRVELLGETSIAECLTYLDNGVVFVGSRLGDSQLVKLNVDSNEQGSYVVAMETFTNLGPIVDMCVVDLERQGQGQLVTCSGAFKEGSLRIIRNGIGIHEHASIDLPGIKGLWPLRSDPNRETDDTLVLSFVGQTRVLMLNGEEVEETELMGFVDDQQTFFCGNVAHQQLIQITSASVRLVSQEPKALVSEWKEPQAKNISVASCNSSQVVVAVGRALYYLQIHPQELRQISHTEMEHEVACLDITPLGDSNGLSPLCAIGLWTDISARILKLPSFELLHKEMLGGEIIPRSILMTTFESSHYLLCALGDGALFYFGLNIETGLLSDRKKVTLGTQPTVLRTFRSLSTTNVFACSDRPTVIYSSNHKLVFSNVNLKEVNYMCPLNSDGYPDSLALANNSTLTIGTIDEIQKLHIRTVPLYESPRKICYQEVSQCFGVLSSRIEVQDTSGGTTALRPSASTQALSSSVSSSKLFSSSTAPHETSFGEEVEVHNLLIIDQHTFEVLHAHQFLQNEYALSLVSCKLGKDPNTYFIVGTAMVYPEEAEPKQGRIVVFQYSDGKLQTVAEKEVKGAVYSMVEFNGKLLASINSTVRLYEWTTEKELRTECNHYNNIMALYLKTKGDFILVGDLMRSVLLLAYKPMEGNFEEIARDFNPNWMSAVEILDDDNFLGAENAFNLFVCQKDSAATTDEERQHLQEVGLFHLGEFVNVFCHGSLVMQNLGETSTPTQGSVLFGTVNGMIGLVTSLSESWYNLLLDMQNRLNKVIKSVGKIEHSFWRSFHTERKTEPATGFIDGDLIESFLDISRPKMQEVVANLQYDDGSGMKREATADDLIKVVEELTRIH
Procedure: The binding potency was determined using H-TRF assay technology (Perkin Elmer). Compounds were serially diluted in DMSO and 0.2 μL volume was transferred to white 384-well plate.

Row | SMILES | DC50 (ER in MCF-7 cells) [µM] | Dmax (ER in MCF-7 cells) [%] | DC50 (ER in T47D cells) [µM] | Dmax (ER in T47D cells; T47D) [%] | IC50 (CRBN/DDB1) [µM] | Dmax (ER in T47D cells) [%]
1 | C[C@@H]1Cc2c([nH]c3ccccc23)[C@@H](c2cnc(N3CCO[C@H](CN4CCN5c6cc7c(cc6OC[C@@H]5C4)C(=O)N(C4CCC(=O)NC4=O)C7)C3)nc2)N1CC(C)(C)F (stereo partly drawn) [Compound A22, 3-((S)-3-(((R)-4-(5-((1R,3R)-2-(2-fluoro-2-methylpropyl)-3-methyl-2,3,4,9-tetrahydro-1H-pyrido[3,4-b]indol-1-yl)pyrimidin-2-yl)morpholin-2-yl)methyl)-8-oxo-1,2,3,4,4a,5,8,10-octahydro-9H-pyrazino[1′,2′:4,5][1,4]oxazino[2,3-f]isoindol-9-yl)piperidine-2,6-dione] | 0.001 to 0.01 | 25 to 50 | < 0.001 | 25 to 50 | 0.05 to 0.5 | –
2 | C[C@@H]1Cc2c([nH]c3ccccc23)[C@@H](c2ccc(N3CCC(CN4CCN5c6ccc7c(c6OC[C@@H]5C4)CN([C@H]4CCC(=O)NC4=O)C7=O)CC3)nc2)N1CC(F)F [Compound A23, (S)-3-((S)-7-((1-(5-((1R,3R)-2-(2,2-difluoroethyl)-3-methyl-2,3,4,9-tetrahydro-1H-pyrido[3,4-b]indol-1-yl)pyridin-2-yl)piperidin-4-yl)methyl)-1-oxo-1,3,5,5a,6,7,8,9-octahydro-2H-pyrazino[1′,2′:4,5][1,4]oxazino[2,3-e]isoindol-2-yl)piperidine-2,6-dione] | 0.001 to 0.01 | 25 to 50 | 0.001 to 0.01 | 50 to 75 | 0.05 to 0.5 | –
3 | C[C@@H]1Cc2c([nH]c3ccccc23)[C@@H](c2cnc([C@H]3CC[C@H](C(=O)N4CCC(N5Cc6cc7c(cc6C5)C(=O)N(C5CCC(=O)NC5=O)C7)CC4)CC3)nc2)N1CC(F)F (stereo partly drawn) [Compound A25, 3-(6-(1-((1R,4r)-4-(5-((1R,3R)-2-(2,2-difluoroethyl)-3-methyl-2,3,4,9-tetrahydro-1H-pyrido[3,4-b]indol-1-yl)pyrimidin-2-yl)cyclohexane-1-carbonyl)piperidin-4-yl)-1-oxo-3,5,6,7-tetrahydropyrrolo[3,4-f]isoindol-2(1H)-yl)piperidine-2,6-dione] | 0.01 to 0.1 | < 25 | < 0.001 | 25 to 50 | < 0.05 | –
4 | COc1cc(N2CCC3(CCN(C(=O)CN4Cc5cc6c(cc5C4)C(=O)N(C4CCC(=O)NC4=O)C6=O)CC3)CC2)ccc1[C@@H]1c2[nH]c3ccccc3c2C[C@@H](C)N1CC(F)F (stereo partly drawn) [Compound A27, 6-(2-(9-(4-((1R,3R)-2-(2,2-difluoroethyl)-3-methyl-2,3,4,9-tetrahydro-1H-pyrido[3,4-b]indol-1-yl)-3-methoxyphenyl)-3,9-diazaspiro[5.5]undecan-3-yl)-2-oxoethyl)-2-(2,6-dioxopiperidin-3-yl)-6,7-dihydropyrrolo[3,4-f]isoindole-1,3(2H,5H)-dione] | < 0.001 | 50 to 75 | < 0.001 | > 75 | 0.5 to 5 | –
5 | COc1cc(N2CCC(CN3CCN4c5cc(F)c(C(=O)N[C@H]6CCC(=O)NC6=O)cc5OC[C@@H]4C3)CC2)ccc1[C@@H]1c2[nH]c3ccccc3c2C[C@@H](C)N1CC(F)F [Compound A30, (S)-3-((1-(4-((1R,3R)-2-(2,2-difluoroethyl)-3-methyl-2,3,4,9-tetrahydro-1H-pyrido[3,4-b]indol-1-yl)-3-methoxyphenyl)piperidin-4-yl)methyl)-N-((S)-2,6-dioxopiperidin-3-yl)-9-fluoro-1,2,3,4,4a,5-hexahydrobenzo[b]pyrazino[1,2-d][1,4]oxazine-8-carboxamide] | 0.001 to 0.01 | 25 to 50 | 0.001 to 0.01 | 50 to 75 | 0.5 to 5 | –
6 | COc1cc(N2CCC(CN3CCN(c4ccc(NC5CCC(=O)NC5=O)cc4F)CC3)CC2)ccc1[C@@H]1c2[nH]c3ccccc3c2C[C@@H](C)N1CC(F)F (stereo partly drawn) [Compound A31, 3-((4-(4-((1-(4-((1R,3R)-2-(2,2-difluoroethyl)-3-methyl-2,3,4,9-tetrahydro-1H-pyrido[3,4-b]indol-1-yl)-3-methoxyphenyl)piperidin-4-yl)methyl)piperazin-1-yl)-3-fluorophenyl)amino)piperidine-2,6-dione] | < 0.001 | 25 to 50 | 0.001 to 0.01 | 25 to 50 | < 0.05 | –
7 | C[C@@H]1Cc2c([nH]c3ccccc23)[C@@H](c2cnc(N3CCC4(CC3)CC(CN3CCC(c5ccc6c(c5)n(C)c(=O)n6C5CCC(=O)NC5=O)CC3)C4)nc2)N1CC(F)F (stereo partly drawn) [Compound A32, 3-(5-(1-((7-(5-((1R,3R)-2-(2,2-difluoroethyl)-3-methyl-2,3,4,9-tetrahydro-1H-pyrido[3,4-b]indol-1-yl)pyrimidin-2-yl)-7-azaspiro[3.5]nonan-2-yl)methyl)piperidin-4-yl)-3-methyl-2-oxo-2,3-dihydro-1H-benzo[d]imidazol-1-yl)piperidine-2,6-dione] | < 0.001 | 25 to 50 | < 0.001 | 50 to 75 | 0.05 to 0.5 | –
8 | COc1cc(N2CCC(CN3CCC4(CC3)COc3cc5c(cc34)CN(C3CCC(=O)NC3=O)C5=O)CC2)ccc1[C@@H]1c2[nH]c3ccccc3c2C[C@@H](C)N1CC(F)F (stereo partly drawn) [Compound A33, 3-(1′-((1-(4-((1R,3R)-2-(2,2-difluoroethyl)-3-methyl-2,3,4,9-tetrahydro-1H-pyrido[3,4-b]indol-1-yl)-3-methoxyphenyl)piperidin-4-yl)methyl)-7-oxo-5,7-dihydro-2H,6H-spiro[furo[2,3-f]isoindole-3,4′-piperidin]-6-yl) piperidine-2,6-dione] | 0.001 to 0.01 | < 25 | < 0.001 | – | 0.05 to 0.5 | 50 to 75
9 | COc1cc(N2CCC(CN3CCC(c4ccc(N[C@H]5CCC(=O)NC5=O)cc4F)CC3)CC2)ccc1[C@@H]1c2[nH]c3ccccc3c2C[C@@H](C)N1CC(F)F [Compound A34, (S)-3-((4-(1-((1-(4-((1R,3R)-2-(2,2-difluoroethyl)-3-methyl-2,3,4,9-tetrahydro-1H-pyrido[3,4-b]indol-1-yl)-3-methoxyphenyl)piperidin-4-yl)methyl)piperidin-4-yl)-3-fluorophenyl)amino)piperidine-2,6-dione] | > 0.1 | < 25 | < 0.001 | 25 to 50 | < 0.05 | –
10 | COc1cc(N2CCC(CN3CCC(c4ccc5c(c4)n(C)c(=O)n5C4CCC(=O)NC4=O)CC3)CC2)ccc1[C@@H]1c2[nH]c3ccccc3c2C[C@@H](C)N1CC(F)F (stereo partly drawn) [Compound A35, 3-(5-(1-((1-(4-((1R,3R)-2-(2,2-difluoroethyl)-3-methyl-2,3,4,9-tetrahydro-1H-pyrido[3,4-b]indol-1-yl)-3-methoxyphenyl)piperidin-4-yl)methyl)piperidin-4-yl)-3-methyl-2-oxo-2,3-dihydro-1H-benzo[d]imidazol-1-yl)piperidine-2,6-dione] | 0.01 to 0.1 | 25 to 50 | < 0.001 | 50 to 75 | 0.05 to 0.5 | –
11 | COc1cc(N2CCC(CN3CCN4c5ccc6c(c5OC[C@H]4C3)CN([C@H]3CCC(=O)NC3=O)C6=O)CC2)ccc1[C@H]1c2[nH]c3ccccc3c2C[C@@H](C)N1CC(F)F [Compound A39, (S)-3-((R)-7-((1-(4-((1S,3R)-2-(2,2-difluoroethyl)-3-methyl-2,3,4,9-tetrahydro-1H-pyrido[3,4-b]indol-1-yl)-3-methoxyphenyl)piperidin-4-yl)methyl)-1-oxo-1,3,5,5a,6,7,8,9-octahydro-2H-pyrazino[1′,2′:4,5][1,4]oxazino[2,3-e]isoindol-2-yl)piperidine-2,6-dione] | < 0.001 | 50 to 75 | < 0.001 | 50 to 75 | 0.05 to 0.5 | –
12 | COc1cc(N2CCC(CN3CCN4c5ccc6c(c5OC[C@@H]4C3)CN([C@@H]3CCC(=O)NC3=O)C6=O)CC2)ccc1[C@@H]1c2[nH]c3ccccc3c2C[C@@H](C)N1CC(F)F [Compound A42, (R)-3-((S)-7-((1-(4-((1R,3R)-2-(2,2-difluoroethyl)-3-methyl-2,3,4,9-tetrahydro-1H-pyrido[3,4-b]indol-1-yl)-3-methoxyphenyl)piperidin-4-yl)methyl)-1-oxo-1,3,5,5a,6,7,8,9-octahydro-2H-pyrazino[1′,2′:4,5][1,4]oxazino[2,3-e]isoindol-2-yl)piperidine-2,6-dione] | < 0.001 | 50 to 75 | < 0.001 | 50 to 75 | 0.5 to 5 | –
